Here are results for five molecules from patent US20240288345A1, “FLUORESCENT STAINING METHOD” (OSAKA UNIVERSITY, priority 2022, published 2024).

The test system of series [1] is goblet cell mucus of human colorectal mucosal tissue. The experiment in a line: Fluorescent staining of frozen sliced specimen of human colonic mucosa (Test Example A). The conditions noted are these: for Fluorescent staining signal in goblet cell mucus, sliced section: 10 μm frozen section, 0.5% periodic acid pretreatment, 50 μM overnight. The protocol:
A tissue to be stained was washed with phosphate buffered saline (PBS), was immersed in 30% (w/v) of sucrose in the PBS, and was frozen in O.C.T. COMPOUND (45833, Sakura Finetek) at −80° ° C. overnight. The frozen tissue was cut into a thickness of 10 μm with a cryostat (CM3050 S, Leica Biosystems). The resultant frozen section was washed with PBS three times, and was subjected to pretreatment with a 0.5% solution of periodic acid (HIOA) (86171, MUTO PURE CHEMICALS CO., LTD.) at room temperature for 30 minutes. The section was washed with PBS three times, and was incubated in FAM hydrazide, 5-isomer((50 µM, 24170, BroadPharm, in this description, sometimes referred to as “FAM hydrazide”), Alexa Fluor 488 hydrazide (50 μM, A10436, ThermoFisher Scientific, Inc.), BDP FL hydrazide (50 μM, 11470, Lumiprobe Corporation), or fluorescein (50 µM, FUJIFILM Wako Pure Chemical Corporation) diluted with PBS at room temperature overnight. After that, the section was washed with PBS and an image thereof was obtained with a confocal microscope.
A section of a human colorectal mucosal tissue sampled from the non-tumor region of a surgical specimen of colorectal cancer was subjected to fluorescent staining through use of FAM hydrazide, Alexa Fluor 488 hydrazide, BDP FL hydrazide, or fluorescein serving as a fluorescent skeleton as a stain.

The subject of series [2] is human colonic mucosal tissue. Kind of series: Clearing and whole-mount 3D fluorescent staining of human colonic mucosal tissue (Test Example B). The conditions noted are these: for 3D imaging signal of cleared tissue: CUBIC clearing, periodic acid, 50 μM, 2-3 days, excitation 488 nm; for Staining property for a sample having a thickness after clearing treatment: summary of Examples and Test Examples. The protocol:
CUBIC-L and CUBIC-R+reagents (T3740 and T3741, Tokyo Chemical Industry Co., Ltd.) were used in tissue clearing. Atissue removal procedure is simply described below.
A formaldehyde-fixed tissue specimen was washed with PBS, and was subsequently immersed in a 50% (v/v) CUBIC-L reagent (mixture containing water and the CUBIC-L reagent at 1:1) overnight. Further, the specimen was immersed in the CUBIC-L reagent at 37° C. for 5 days or 6 days while being gently shaken. Next, each of those specimens was washed with PBS, was immersed in 30% (w/v) of sucrose in the PBS, and was frozen in O.C.T. COMPOUND at −80° C. overnight. […] After having been washed with PBS, the specimen was stained by being gently shaken at room temperature for 2 days or 3 days together with FAM hydrazide, 5-isomer (50 μM), Compound 1 (50 μM), Alexa Fluor 488 hydrazide (50 µM), BDP FL hydrazide ([…]), or fluorescein (50 µM) in PBS containing 0.5% (v/v) of Triton X-100 (12967, Nacalai Tesque, Inc.). When nuclear counterstaining was performed, propidium iodide (PI) (10 μg/mb, P21493, Life Technologies Corporation) or RedDot-2 (1:100, 40061-T, Biotium, Inc.) was also added to the staining solution. After the staining step, the specimen was washed with PBS, and was immersed in a 50% (v/v) CUBIC-R+reagent (mixture containing water and the CUBIC-R+reagent at 1:1) overnight. Further, the specimen was immersed in the CUBIC-R+reagent for 1 day or 2 days while being gently shaken. A cleared tissue specimen thus obtained was subjected to 3D imaging with a confocal fluorescence microscope or a light-sheet fluorescence microscope. A wavelength of 488 nm was applied as the excitation wavelength of each of FAM hydrazide, Compound 1, Alexa Fluor 488 hydrazide, BDP FL hydrazide, and fluorescein, and the fluorescence detection wavelength range of each of these materials was from 490 nm to 562 nm.
A 3D image was obtained by using a confocal microscope (Zeiss LSM880 Confocal/Multiphoton, Carl Zeiss AG) or a light-sheet fluorescence microscope (Zeiss Lightsheet 7, Carl Zeiss AG), All pieces of raw image data were reconstructed and analyzed with Imaris software (version 9.2.1, Bitplane Inc.).
A human colonic mucosal tissue after its formalin fixation, which had been excised into a square about 4 mm on a side, was subjected to clearing treatment and to whole-mount 3D tissue staining through use of FAM hydrazide, Alexa Fluor 488 hydrazide, BDP FL hydrazide, or fluorescein as a stain.

Series [3] can be described thus: Fluorescence spectra before and after addition of propionaldehyde. The conditions noted are these: 0.02 mmol/L in 10 mmol/L sodium phosphate buffer pH 7.4; propionaldehyde 0.10 mmol/L; room temperature 4 days. Format: physicochemical. How it is done:
Propionaldehyde was added to a 10 mmol/L sodium phosphate buffer (pH: 7.4) containing 0. 02 mmol/L of each of DAF-2 and Compound 2 so that its final concentration became 0.10 mmol/L, followed by stirring at room temperature for 4 days. The absorption and fluorescence spectra of each of the solutions before the addition of the aldehyde and after the addition were measured.

Series [4] deals with basement membrane of a renal glomerulus. Kind of series: Staining of basement membrane of renal glomerulus (Example 5). The conditions noted are these: staining as for colonic section. The protocol: (§1) Specifically, the human colonic mucosal tissue sample after the formalin fixation was sufficiently washed with PBS, and was then immersed in PBS containing 30% (w/v) of sucrose, followed by the production of a frozen block with TISSUE-TEK O. C. T. COMPOUND. The frozen block was sliced into a thickness of 8 μm to produce a frozen section. The frozen section was washed with PBS, and was then stained with a solution, which had been obtained by diluting DAF-2 ([…]) or Compound 2 (50 μM) with PBS, at room temperature for 1 day. After that, the stained product was sufficiently washed with PBS. Then, the washed product was mounted with a water-soluble mounting medium, and an image thereof was taken with a confocal microscope.

Series [5] concerns colonic mucosal epithelium. The experiment in a line: Staining combined with CUBIC tissue clearing, 3D imaging (Example 5). The conditions noted are these: CUBIC-L/CUBIC-R+ clearing, periodic acid pretreatment, 50 μM, room temperature 3 days. The arrangement: species or system human. The protocol: Specifically, the human colonic mucosal tissue sample after the formalin fixation was sufficiently washed with PBS, and was then immersed in a solution, which had been obtained by diluting a CUBIC-L reagent with distilled water to 1/2, at 37° ° C. while being gently shaken. After that, the sample was immersed in the CUBIC-L reagent, and was treated at 37° C. while being gently shaken. During the treatment, the CUBIC-L reagent was replaced with a new one at an interval of once per 1 to 2 days. After that, the sample was sufficiently washed with PBS, and was then immersed in PBS containing 30% (w/v) of sucrose. After that, a frozen block of the Sample was produced by using TISSUE-TEK O.C.T. COMPOUND. The frozen block was thawed, and was then sufficiently washed with PBS and subjected to pretreatment with a […] aqueous solution of periodic acid, followed by staining with a solution, which had been obtained by diluting DAF-2 (50 μM) with PBS, at room temperature for 3 days. After that, the stained product was sufficiently washed with PBS, and was then immersed in a solution obtained by diluting a CUBIC-R+reagent with distilled water to 1/2, followed by gentle shaking at room temperature. After that, the resultant was immersed in the CUBIC-R+reagent at room temperature for 1 day while being gently shaken. An image of the resultant was taken with a confocal microscope. […]

The test system of series [6] is mucus of a goblet cell of colonic mucosa. The experiment in a line: Staining of frozen sliced section of human colonic mucosal tissue (Example 5). The conditions noted are these: 8 μm frozen section, 50 μM in PBS, room temperature 1 day, confocal microscope.
Text: A fluorescent probe containing a diaminobenzene structure, such as DAF-2 or Compound 2, was examined for its staining property in the mucus of a goblet cell by using a frozen sliced section of a human colonic mucosal tissue as a positive control analyte. Specifically, a sliced frozen section was cut out of the colonic mucosal tissue after its formalin fixation, and was stained with a group of candidate fluorescent probes and washed with phosphate buffered saline. After that, an image of the section was taken with a confocal fluorescence microscope.
as §1

A short description of series [7]: Light characteristics: molar extinction coefficient and quantum yield (Table 1). Format: physicochemical. The conditions noted are these: 10 mM sodium phosphate buffer, pH 7.4. From the text: When propionaldehyde was caused to act on DAF-2 (product model number: SK1001-01, Goryo Chemical, Inc.), Compound 16 below was obtained. It was recognized that Compound 16 was fluorescent and its fluorescence intensity increased along with the formation of a benzimidazole ring. […] The formation of a covalent bond with the aldehyde enables detection by fluorescence emission.

The conditions of series [8]: 100 mM sodium phosphate buffer, pH 7.4, cited from earlier work.

“Also recorded” adds a separate entry of the source. Where two headings read alike, the source gives them in different places.

As for `Cc1cc(C)n2c1C=C1C=CC(CCC(=O)NN)=[N+]1[B-]2(F)F.Cl` [BDP FL hydrazide], the “Fluorescent staining signal in goblet cell mucus, sliced section” value in series [1] is on record as “weak”. For the same molecule, in series [2], the “3D imaging signal of cleared tissue” value was “weak” and the “Staining property for a sample having a thickness after clearing treatment” value (shortened to “Staining property”) was “insufficient”.

As for `Cc1cc(N)c(N)cc1-c1c2ccc(=O)cc-2oc2cc(O)ccc12` [Compound 2], the “Fluorescence intensity after addition of the aldehyde compared to before” value in series [3] is “increase”. Further, the “Visualization of basement membrane of renal glomerulus” value in series [4] is recorded as “clearly visualized”. Also, in series [5], the “3D imaging of colonic mucosal epithelium” value is recorded as “enabled the 3D imaging”. The “Staining property” value in series [2] is “significantly excellent”. Also, in series [6], the “Staining of mucus of goblet cell of colonic mucosa” value is recorded as “clearly stained”.

In series [7], `CCc1nc2cc(C(=O)O)c(-c3c4ccc(=O)cc-4oc4cc(O)ccc34)cc2[nH]1` [Compound 16] returned a Quantum yield of 0.85 and a λabs of 489 nm. Further, the Molar extinction coefficient in series [7] (in M-1 cm-1 (unit assumed)) is given as 63,000.

Take `Nc1cc(C(=O)O)c(-c2c3ccc(=O)cc-3oc3cc(O)ccc23)cc1N` [DAF-2]: the “Fluorescence intensity after addition of the aldehyde compared to before” value in series [3] is on record as “increase”. For the same molecule, the “Visualization of basement membrane of renal glomerulus” value in series [4] was “clearly visualized”. Also, in series [8], the Quantum yield is given as 0.005 and the λabs is reported as 486 nm. Further, the Molar extinction coefficient in series [8] (in M-1 cm-1 (unit assumed)) is 79,000. For the same molecule, the “3D imaging of colonic mucosal epithelium” value in series [5] is “enabled the 3D imaging”. Moreover, the “Staining property” value in series [2] is given as “significantly excellent”. Moreover, the “Staining of mucus of goblet cell of colonic mucosa” value in series [6] is reported as “clearly stained”.

Alexa Fluor 488 hydrazide: the “Fluorescent staining signal in goblet cell mucus, sliced section” value in series [1] is on record as “clear positive image; also recorded: clear staining”. Also, the “Fluorescent staining signal without oxidation treatment with HIO4, sliced section” value in series [1] (no HIO4 oxidation) was “not obtained”. Moreover, in series [2], the “3D imaging signal of cleared tissue” value is recorded as “weak” and the “Staining property” value is reported as “insufficient”.
